Data on eight compounds can be found in patent US20110190285A1 (priority 2008, published 2011).

pIC50: −log10 of the molar value.

Assay [1] deals with botulinum toxin recombinant light chain (Clostridium botulinum, UniProt P0DPI0). The assay can be described thus: biochemical.
Another assay addresses botulinum (serotype-A) (Clostridium botulinum, UniProt P0DPI1). In words: cell-based. To be noted: for inhibition at 30 µM: read-out: Cell Biology (% inhibition at 30 uM); for pIC50: read-out: Cell Biology IC50.

Sequence of botulinum (serotype-A) (P0DPI1 2-1296 limits assumed): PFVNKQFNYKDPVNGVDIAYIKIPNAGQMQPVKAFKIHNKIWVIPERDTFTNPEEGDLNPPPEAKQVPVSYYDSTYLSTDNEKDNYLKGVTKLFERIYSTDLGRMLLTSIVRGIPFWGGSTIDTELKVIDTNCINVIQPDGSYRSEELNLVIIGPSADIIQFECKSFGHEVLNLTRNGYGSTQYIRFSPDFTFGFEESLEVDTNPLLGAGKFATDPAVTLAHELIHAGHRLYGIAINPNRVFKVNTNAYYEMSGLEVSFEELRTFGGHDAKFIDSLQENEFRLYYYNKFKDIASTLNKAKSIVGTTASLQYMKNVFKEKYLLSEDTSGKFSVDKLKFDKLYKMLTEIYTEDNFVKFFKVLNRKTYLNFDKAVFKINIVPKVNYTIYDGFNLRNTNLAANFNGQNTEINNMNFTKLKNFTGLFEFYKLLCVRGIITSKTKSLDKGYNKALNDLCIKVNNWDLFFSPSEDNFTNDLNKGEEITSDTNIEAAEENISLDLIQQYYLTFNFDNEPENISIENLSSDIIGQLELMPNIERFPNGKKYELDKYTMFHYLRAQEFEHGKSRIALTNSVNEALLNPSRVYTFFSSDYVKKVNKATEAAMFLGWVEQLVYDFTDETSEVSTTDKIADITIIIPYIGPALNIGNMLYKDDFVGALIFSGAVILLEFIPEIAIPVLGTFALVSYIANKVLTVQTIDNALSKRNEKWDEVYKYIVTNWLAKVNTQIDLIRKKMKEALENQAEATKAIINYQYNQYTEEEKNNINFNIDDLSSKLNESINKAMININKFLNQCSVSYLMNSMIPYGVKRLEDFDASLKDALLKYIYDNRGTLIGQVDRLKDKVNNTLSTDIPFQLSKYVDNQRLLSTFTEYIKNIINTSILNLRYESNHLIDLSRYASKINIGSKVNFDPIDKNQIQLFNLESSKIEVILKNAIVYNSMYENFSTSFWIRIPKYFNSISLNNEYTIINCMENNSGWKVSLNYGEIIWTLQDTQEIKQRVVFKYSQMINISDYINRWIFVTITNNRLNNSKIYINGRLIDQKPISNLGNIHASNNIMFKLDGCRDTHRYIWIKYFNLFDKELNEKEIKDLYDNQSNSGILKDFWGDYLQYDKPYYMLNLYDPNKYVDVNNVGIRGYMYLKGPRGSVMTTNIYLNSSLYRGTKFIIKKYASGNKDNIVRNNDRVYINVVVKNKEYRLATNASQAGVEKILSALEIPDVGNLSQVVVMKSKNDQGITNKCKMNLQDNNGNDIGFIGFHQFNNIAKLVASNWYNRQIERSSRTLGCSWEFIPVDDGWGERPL
Sequence of botulinum toxin recombinant light chain (P0DPI0 2-448 limits assumed): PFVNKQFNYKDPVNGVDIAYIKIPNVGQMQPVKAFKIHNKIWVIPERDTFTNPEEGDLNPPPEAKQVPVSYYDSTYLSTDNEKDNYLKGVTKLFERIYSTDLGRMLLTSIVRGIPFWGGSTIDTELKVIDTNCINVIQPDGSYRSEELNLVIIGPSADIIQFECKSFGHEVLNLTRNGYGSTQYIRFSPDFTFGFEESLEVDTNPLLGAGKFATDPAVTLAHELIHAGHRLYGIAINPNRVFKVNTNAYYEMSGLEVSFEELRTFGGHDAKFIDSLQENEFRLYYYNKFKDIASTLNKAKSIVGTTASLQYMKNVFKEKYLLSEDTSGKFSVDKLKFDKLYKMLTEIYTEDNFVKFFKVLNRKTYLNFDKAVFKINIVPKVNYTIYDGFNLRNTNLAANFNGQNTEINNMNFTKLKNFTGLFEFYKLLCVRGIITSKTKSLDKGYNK

Usually pIC50 stands for the negative decadic logarithm of the IC50, by convention in mol/L. Consider `C[C@@H](NC(=O)CS)c1ccc2ccccc2c1`, for which the pIC50 in assay [1] was 4.68 to 5.10.

As usually defined, the inhibition is the percentage by which the read-out fell short of the control. As to `O=C(CS)Nc1cc(-c2ccc(Cl)cc2)n[nH]1`, at botulinum (serotype-A), the inhibition at 30 µM lay within 57 to 100% and the pIC50 was 4.72 to 5.00.

Take `CCOC(=O)Cc1csc(NC(=O)CS)n1`: the inhibition at 30 µM on botulinum (serotype-A) worked out at 86%.

Turning to `Cc1ccc(NC(=O)CS)cc1C#N`, the inhibition at 30 µM on botulinum (serotype-A) is 77%.

Turning to `O=C(CS)Nc1ccc2c(c1)Cc1cc(Br)ccc1-2`, the inhibition at 30 µM at botulinum (serotype-A) was 90%.

Take `O=C(CS)Nc1cc(-c2ccc(F)cc2)n[nH]1`: the inhibition at 30 µM on botulinum (serotype-A) fell in the range of 73 to 78%.

Consider `CC(NC(=O)CS)c1ccc(Cl)cc1Cl` (stereo not drawn) [drawing 65], for which the pIC50 in assay [1] is 4.57 to 5.30.

For `CC(NC(=O)CS)c1ccc(Cl)cc1Cl` (stereo not drawn) [drawing 69], on botulinum (serotype-A), the pIC50 was 4.74.
